From US20040198821A1, “Reduction of hair growth” (priority 2002, published 2004)
Blank lines part the entries; values can stand above or below the compound they belong to.

Columns and labels:
[1] = system: hamster flank organ hair growth (hair mass); experiment: Golden Syrian hamster assay (hair mass assay); assay type: in vivo; conditions: for % Inhibition of hamster hair mass / Treated (mg) hair mass: three weeks
Description: Golden Syrian Hamster Assay
Male intact Golden Syrian hamsters are considered acceptable models for human beard hair growth in that they display oval shaped flank organs, one on each side, each about 8 mm. in major diameter. These organs produce fine light colored hair typical of the animal pelage found on the body. In response to androgens the flank organs produce dark coarse hair similar to male human beard hair. To evaluate the effectiveness of a composition in reducing hair growth, the flank organs of each of a group of hamsters are depilated by applying a thioglycolate based chemical depilatory (Surgex) and/or shaved. To one organ of each animal 10 μl. of vehicle alone once a day is applied, while to the other organ of each animal an equal amount of vehicle containing the compound under evaluation is applied. After three weeks of topical applications (one application per day for five days a week), the flank organs are shaved and the amount of recovered hair (hair mass) from each is weighed. Percent-reduction of hair growth is calculated by subtracting the hair mass (mg) value of the test compound treated side from the hair mass value of the vehicle treated side; the delta value obtained is then divided by the hair mass value of the vehicle treated side, and the resultant number is multiplied by 100.
The above-described assay will be referred to herein as the “Golden Syrian hamster” assay or “hair mass” assay. Preferred compositions provide a reduction in hair growth of at least about 15% and more preferably at least about 35%, when tested in the Golden Syrian hamster assay.

[2] = system: Carnitine palmitoyltransferase I (CPT I); experiment: Assay of carnitine palmitoyl transferase-I (CPT-I), Method-I; assay type: biochemical; conditions: inhibitor 5 mM, hamster flank organ hair follicle fraction
Experimental: Assay of Carnitine Palmitoyl Transferase-I (CPT-I)
Two different enzyme assays were used to quantify the activity of CPT-I in hair follicles:
Hair follicle rich fraction from hamster flank organs are homogenized in Buffer A (200 mM mannitol, 10 mM sucrose, 5 mM MOPS pH 7.4). The homogenate is centrifuged at 2000 rpm for 10 minutes. The supernatant is removed and centrifuged at 7000 rpm for 30 minutes. The pellet is resuspended in Buffer B (20 mM Tris-HCl, pH 7.4), 400 mM sucrose, 80 mM KCl, 2 mM EDTA, 2.6 mg/ml fatty acid free BSA). 30 μl of the resuspended pellet is added to 35 μl of DMSO or one of the inhibitors diluted in DMSO so that the final concentration is 5 mM. After a 15 min preincubation, the following are added; 35 μl of 1.7 mM palmitoyl Co-A (34% water and 66% Buffer B), 10 μl of 5 mM L-carnitine (in buffer B with 0.5 μCi ^3H-carnitine). The reaction is then placed in a 37° C. water bath for 30 minutes. At the end of 30 minutes the reaction is stopped by the addition of 150 μl cold 1N HCl. This is followed by the addition of 250μl water to each sample. Butanol (500 μl) is then added to each sample and the samples are centrifuged for 2 minutes at 10,000×g. 300 μl of the butanol layer is transferred to a new centrifuge tube and 250 μl of water is added. 200 μl of the organic phase is added to a scintillation vial containing 12 ml of scintillation cocktail. The radioactivity is determined using a scintillation counter.

human hair follicles = experiment: Human hair follicle growth assay; assay type: cell-based
Description: Human Hair Follicle Growth Assay
Tissue source—Human skin was obtained from a plastic surgeon as a by-product of face-lift procedures. Immediately after removal, the skin was placed in Williams E medium containing antibiotics and refrigerated. The Williams E medium is a commercially obtained medium which has been formulated with essential nutrients for maintaining viability of tissues or cells such as of hair follicle in an in-vitro environment.
Hair Follicle Isolation and Culture—Human hair follicles in growth phase (anagen) were isolated from face-lift tissue under a dissecting scope using a scalpel and watchmakers forceps. The skin was sliced into thin strips exposing 2-3 rows of follicles that could readily be dissected. Follicles were placed into 0.5 ml Williams E medium supplemented with 2 mM L-glutamine, 10 μg/ml insulin, 100 ng/ml hydrocortisone, 100 units penicillin, 0.1 mg/ml streptomycin and 0.25 μg/ml amphotericin B. The follicles were incubated in 24 well plates (1 follicle/well) at 37° C. in an atmosphere of 5% CO2 and 95% air. Hair follicles were video recorded in the 24-well plates under the dissecting scope under a power of 10×. Typically, hair follicle lengths were measured on day 0 (day follicles were placed in culture) and again on day 7. When testing compounds, the compound was included in the culture medium from time 0 and remained in the medium throughout the course of the experiment. The length of hair follicles was assessed using an image analysis software system (Jasc Image Robot).

3-ketoacyl-CoA thiolase = experiment: Assay of 3-ketoacyl-CoA thiolase; assay type: biochemical, hamster; conditions: inhibitor 0.5 mM, mitochondria preincubated 5 min
Experimental: Assay of 3-Ketoacyl-CoA Thiolase:
Aliquots of the mitochondrial suspension (50 μl) were rapidly frozen in dry ice and stored at −80° C. until enzyme activities were assayed as described below. To insure the complete disruption of mitochondria, Triton X-100 (0.06%) was added to all assay mixtures. The activity of thiolase was determined by spectrophotometrically following the disappearance of the Mg^2+-enolate complex at 303 nm. The enzyme assay was performed at 25° C. The reaction mixture contained 0.1 M Tris-HCl (pH 8.2), 25 mM MgCl2, 30 mM KCl, 0.06% Triton X-100, bovine serum albumin (0.13 mg/ml), 70 μM CoA and 33 μM acetoacetyl-CoA. Molar extinction coefficient of […] was used to calculate the rates determined with acetoacetyl-CoA.

[3] = system: Carnitine palmitoyltransferase I (CPT I); experiment: Assay of carnitine palmitoyl transferase-I (CPT-I), Method II (isolated mitochondrial fraction); assay type: biochemical, hamster; conditions: inhibitor 1 mM
Experimental: The enzyme activity of carnitine palmitoyl transferase-I (CPT-I) was also determined in the isolated mitochondrial fraction. Isolation of mitochondria from the hair follicle rich fraction of flank organs was accomplished by conventional differential centriftigation in 0.25 M sucrose, 10 mM Tris-HCl, pH 7.4 and 1 mM EDTA after tissues were homogenized by polytron homogenizer and Dounce tissue grinder. The pellet obtained at 7000 g was washed two times and finally suspended at 40-80 mg/ml. Carnitine palmitoyltransferase was measured as the rate of conversion of palmitoyl-CoA and [^3H]CH3-L-carnitine into palmitoyl-[^3H]CH3-1-carnitine. The incubation mixture initially contained 12.5 μmol of Tris-HCl (pH 7.2), 15 μmol of KCl, 3.1 μmol of KCN, 6.2 μmol of glutathione, 15 nmol of CoA, […], 2 μmol of ATP (pH 6.8) in volume of 0.425 ml. To this mixture 50 μl of mitochondria were added, followed by preincubation at 37° C. for 10 minutes in the presence or absence of the enzyme inhibitor methyl palmoxirate (dissolved in DMSO). After preincubation, the enzyme reaction was initiated by the addition of 25 μl of 2 mM palmitoyl-CoA and 25 μl of 4 mM [^3H]CH3-L-carnitine. The reaction was stopped after 30 minutes with 1 ml 1N HCl and palmitoyl-[^3H]CH3-L-carnitine was extracted into n-butanol. The radioactivity was determined using scintillation spectrometry.

[4] = 1 mM in culture medium, day 0 to day 7

SMILES: CCCCCCCCCC(=O)OC(CC(=O)O)C[N+](C)(C)C.[Cl-] (racemic) [DL-decanoylcarnitine chloride]
- % Inhibition of hamster hair mass ([1]; topical dose 10.0%, vehicle B): 58 ± 5%
- Treated (mg) hair mass ([1]; topical dose 10.0%, vehicle B): 0.94 ± 0.12 mg

SMILES: CCCCCCCCCCCCCCC(Br)C(=O)O (centres unmarked) [2-bromopalmitic acid]
- % inhibition of CPT I [2]: 91%
- pmol product /mg protein (CPT I activity) [2]: 0.07 pmol product /mg protein

SMILES: CCCC(CCC)C(=O)O [2-propylpentanoic acid]
- % Inhibition of hamster hair mass ([1]; topical dose 20.0%, vehicle A): 67 ± 3%
- Treated (mg) hair mass ([1]; topical dose 20.0%, vehicle A): 2.68 ± 0.20 mg

- % inhibition of 3-ketoacyl-CoA thiolase (3-ketoacyl-CoA thiolase): 85.2%
- nmol product/mg protein (3-ketoacyl-CoA thiolase activity) (3-ketoacyl-CoA thiolase): 0.128 nmol product/mg protein
SMILES: O=C(O)/C=C/CBr [4-bromocrotonic acid]
- Hair follicle length increase (mm) (human hair follicles; 0.03 mM in culture medium, day 0 to day 7): 0.06 ± 0.06 mm
- inhibition at 30 µM (human hair follicles; Homo sapiens, 0.03 mM in culture medium, day 0 to day 7): 95 ± 5%
- % Inhibition of hamster hair mass ([1]; topical dose 3.0%, vehicle B): 37 ± 14%
- Treated (mg) hair mass ([1]; topical dose 3.0%, vehicle B): 1.25 ± 0.37 mg

SMILES: C=CCCC(=O)O [4-pentenoic acid]
- % Inhibition of hamster hair mass ([1]; topical dose 10.0%, vehicle A): 46 ± 8%
- Treated (mg) hair mass ([1]; topical dose 10.0%, vehicle A): 1.10 ± 0.12 mg

SMILES: CC(C)(C)c1ccc(C(=O)O)cc1 [4-tert-butylbenzoic acid]
- % Inhibition of hamster hair mass ([1]; topical dose 10.0%, vehicle C): 46 ± 8%
- Treated (mg) hair mass ([1]; topical dose 10.0%, vehicle C): 1.10 ± 0.12 mg

SMILES: CCCCc1oc2ccccc2c1C(=O)c1cc(I)c(OCCN(CC)CC)c(I)c1 [amiodarone]
- % Inhibition of hamster hair mass ([1]; topical dose 7.5%, vehicle A): 44 ± 28%
- Treated (mg) hair mass ([1]; topical dose 7.5%, vehicle A): 1.62 ± 0.9 mg

SMILES: C/C=C/C/C=C/CCC(=O)[C@H]1O[C@H]1C(N)=O [cerulenin]
- Hair follicle length increase (mm) (human hair follicles; 10 μM in culture medium, day 0 to day 7): 0.06 ± 0.05 mm
- inhibition at 10 µM (human hair follicles; Homo sapiens, 10 μM in culture medium, day 0 to day 7): 93.7 ± 5.6%
- inhibition of human hair follicle growth in vitro (in words) (human hair follicles; text summary of Table VII): can inhibit human hair follicle growth in vitro with marked efficacy

- % inhibition of CPT I [2]: 100%
- pmol product /mg protein (CPT I activity) [2]: 0.00 pmol product /mg protein
SMILES: COc1ccc(Cl)cc1C(=O)NCCc1ccc(S(=O)(=O)NC(=O)NC2CCCCC2)cc1 [glynbenclamide]
- % Inhibition of hamster hair mass ([1]; topical dose 10.0%, vehicle D): 32 ± 8%
- Treated (mg) hair mass ([1]; topical dose 10.0%, vehicle D): 1.40 ± 0.32 mg

- % inhibition of CPT I [2]: 22%
- pmol product /mg protein (CPT I activity) [2]: 0.59 pmol product /mg protein
SMILES: CC(C)(COP(=O)(O)OP(=O)(O)OC[C@H]1O[C@@H](n2cnc3c(N)ncnc32)[C@H](O)[C@@H]1OP(=O)(O)O)[C@@H](O)C(=O)NCCC(=O)NCCSC(=O)CC(=O)O [malonyl CoA]

SMILES: CCCCCCCCCCCCCCC1(C(=O)OC)CO1 (centres unmarked) [methyl palmoxirate, methyl-2-tetradecylglycidate]
- Hair follicle length increase (mm) (human hair follicles; 0.1 mM in culture medium, day 0 to day 7): 0.54 ± 0.3 mm
- inhibition at 100 µM (human hair follicles; Homo sapiens, 0.1 mM in culture medium, day 0 to day 7): 57 ± 24%
- % Inhibition of hamster hair mass ([1]; topical dose 2.0%, vehicle B): 66 ± 4%
- Treated (mg) hair mass ([1]; topical dose 2.0%, vehicle B): 0.56 ± 0.12 mg

SMILES: CCCCCCCCC1=C(CCCCCCCC(=O)OC)C1 [methyl sterculate]
- % Inhibition of human hair follicle growth (human hair follicles; [4]): 59.3 ± 0.2%
- Hair follicle length increase (mm) (human hair follicles; [4]): 0.59 ± 0.29 mm
- reduction of hair growth in vitro (in words) (human hair follicles; text summary of Table IX): can reduce hair growth both in vivo and in vitro
- reduction of hair growth in vivo (in words) ([1]; text summary of Table VIII): can reduce hair growth both in vivo and in vitro
- % Inhibition of hamster hair mass ([1]; topical dose 2.5%, vehicle E): 45.1 ± 6.8%
- Treated (mg) hair mass ([1]; topical dose 2.5%, vehicle E): 1.4 ± 0.2 mg

- % inhibition of CPT I [3]: 44%
- pmol product /mg protein (CPT I activity) [3]: 0.64 pmol product/mg protein
SMILES: N[C@H](C(=O)O)c1ccc(O)cc1 [oxfenicine]

SMILES: CCCCCCCCCCCCCCCC(=O)OC(CC(=O)[O-])C[N+](C)(C)C (stereo not drawn) [palmitoyl DL carnitine]
- % Inhibition of hamster hair mass ([1]; topical dose 10.0%, vehicle A): 73 ± 15%
- Treated (mg) hair mass ([1]; topical dose 10.0%, vehicle A): 0.29 ± 0.1 mg

- % inhibition of CPT I [2]: 86%
- pmol product /mg protein (CPT I activity) [2]: 0.10 pmol product /mg protein
SMILES: C1CCC(C(CC2CCCCN2)C2CCCCC2)CC1 (centres unmarked) [perhexiline]
- % Inhibition of hamster hair mass ([1]; topical dose 2.5%, vehicle B): 23 ± 25%
- Treated (mg) hair mass ([1]; topical dose 2.5%, vehicle B): 2.28 ± 0.77 mg

- % inhibition of CPT I [2]: 90%
- pmol product /mg protein (CPT I activity) [2]: 0.07 pmol product /mg protein
SMILES: CCCCNC(=O)NS(=O)(=O)c1ccc(C)cc1 [tolbutamide]
